Assay: Accelerated heat-treatment test for browning (Experiment 4)
Format: physicochemical
Details: 150 mg heated at 80° C. for three days, dissolved in 3 ml water, absorbance at 400 nm
From the text: Accordingly, in this experiment, Test samples 1 and 12 to 16, which had been used in the antecedent Experiments, were examined for the relationship between the coloration and the total content of L-ascorbic acid plus D-glucose, the content of L-ascorbic acid, or the reducing power of the whole particulate composition by conducting an accelerated test on heat treatment according to the following procedures:
One hundred and fifty milligrams of each of the test samples was weighed and placed in a 10-ml test tube with a screw cap, and the test tubes in a closed condition of their opening parts with the screw caps were placed in “DRYING-OVEN SA310”, a product name of an oven commercialized by Masuda Corp., Osaka, Japan, and heated at 80° C. for three days. […] The resulting solutions were measured for absorbance at a wavelength of 400 nm using “UV-2400PC”, a product name of a spectrophotometer commercialized by Shimadzu Corp., Kyoto, Japan. The degree of coloration caused by heating was judged based on the following two criteria: When the absorbance at a wavelength of 400 nm is less than 0.50, it is judged as “Not browned or substantially not browned” (−); and when the absorbance at a wavelength of 400 nm is 0.50 or higher, it is judged as “Browned” (+).

Compound: O=C1O[C@H]([C@@H](O)CO)C(O)=C1O[C@H]1O[C@H](CO)[C@@H](O)[C@H](O)[C@H]1O [Test sample 16, 2-O-α-D-glucosyl-L-ascorbic acid]
- Browning property: + (when the absorbance at a wavelength of 400 nm is 0.50 or higher, it is judged as “Browned” (+))

Reference: US9265781B2, “Process for producing a particulate composition comprising anhydrous crystalline 2-O-alpha-D-glucosyl-L-ascorbic acid” (HAYASHIBARA CO., LTD., priority 2009, dated 2016)
